Consider 23 compounds from US20170334899A1, “AMINO-SUBSTITUTED ISOTHIAZOLES” (Bayer Pharma Aktiengesellschaft, priority 2014, published 2017).

Assay [1] has as its system human cervical tumor cell line HeLa (ATCC CCL-2). Put plainly: SAC-Formation - Nocodazole-Induced Assay. The class given is cell-based. As to conditions: Homo sapiens, HeLa, 24 h, HeLa cells, nocodazole 0.1 μg/ml together with test compound, decrease of mitotic cells (phospho-histone H3 Ser10). Summed up: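 Loss of phospho-histone H3 Ser10-positive cells, counted against Hoechst-stained nuclei by high-content imaging, marked mitotic breakthrough. Compounds (0.005–20 μM, 0.5% DMSO) were co-dosed with 0.1 μg/ml nocodazole onto HeLa cells for 24 h at 37 °C. Curves were fitted with a four-parameter Hill equation.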

The test system is the same in assay [2]. Put plainly: SAC-Formation - Paclitaxel-Induced Assay. The class given is cell-based. As to conditions: 24 h, HeLa cells, paclitaxel 0.05 μM, test range 0.005 μM-20 μM, read-out: IC50 [mol/l] SAC-Formation - Paclitaxel-Induced Assay. An outline of the steps: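 Read-out is high-content imaging of anti-phospho-H3 Ser10 (mitosis) and Hoechst 33342 (DNA, cell number), with decreased mitotic fraction marking checkpoint breakthrough. Compounds (0.005–20 μM) and 0.05 μM paclitaxel co-added to overnight-plated HeLa for 24 h at 37° C; four-parameter Hill fit.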

The structures appear in SMILES notation.

Turning to `Cc1nsc(Nc2ccc(C#N)cn2)c1C(=O)Nc1ccc(OC[C@H]2CCN(CC(F)(F)F)C2)nc1` [Example 405, 5-[(5-Cyanopyridin-2-yl)amino]-3-methyl-N-(6-{[(35)-1-(2,2,2-trifluoroethyl)pyrrolidin-3-yl]methoxy}pyridin-3-yl)-1,2-thiazole-4-carboxamide], in assay [1], the IC50 was 86 nM.
For `Cc1nsc(Nc2cnc(C(F)(F)F)cn2)c1C(=O)Nc1ccc(O[C@@H]2CN(CCC(F)(F)F)C[C@@H]2F)nc1` [Example 409, N-(6-{[(3R,4S)-4-Fluoro-1-(3,3,3-trifluoropropyl)pyrrolidin-3-yl]oxy}pyridin-3-yl)-3-methyl-5-{[5-(trifluoromethyl)pyrazin-2-yl]amino}-1,2-thiazole-4-carboxamide], the IC50 in assay [2] (Homo sapiens, HeLa) is 39 nM; in assay [1], 21 nM.
The matching figures for `Cc1nsc(Nc2cnc(C(F)(F)F)cn2)c1C(=O)Nc1ccc(F)c(O[C@@H]2CCN(CC(F)F)C2)c1` [Example 412, N-(3-{[(3R)-1-(2,2-Difluoroethyl)pyrrolidin-3-yl]oxy}-4-fluorophenyl)-3-methyl-5-{[5-(trifluoromethyl)pyrazin-2-yl]amino}-1,2-thiazole-4-carboxamide]: 11 nM and 13 nM.
With `Cc1nsc(Nc2cnc(C(F)(F)F)cn2)c1C(=O)Nc1ccc(OC[C@H]2CCCN(CCC(F)(F)F)C2)nc1` [Example 378, 3-methyl-5-{[5-(trifluoromethyl)pyrazin-2-yl]amino}-N-(6-{[(3S)-1-(3,3,3-trifluoropropyl)piperidin-3-yl]methoxy}pyridin-3-yl)-1,2-thiazole-4-carboxamide], the IC50 in assay [2] (Homo sapiens, HeLa) came out at 29 nM.
Regarding `Cc1nsc(Nc2cncc(C(F)(F)F)n2)c1C(=O)Nc1ccc(OCCN(C)C(=O)OC(C)(C)C)nc1` [Example 430, tert-Butyl methyl{2-[(5-{[(3-methyl-5-{[6-(trifluoromethyl)pyrazin-2-yl]amino}-1,2-thiazol-4-yl)carbonyl]amino}pyridin-2-yl)oxy]ethyl}carbannate], the IC50 in assay [2] (Homo sapiens, HeLa) turned out to be 45 nM; in assay [1], 11 nM.
`Cc1nsc(Nc2cnc(C(F)(F)F)cn2)c1C(=O)Nc1ccc(OCCCNC(=O)C(F)(F)F)nc1` [Example 428, 3-Methyl-N-(6-{3-[(trifluoroacetyl)amino]propoxy}pyridin-3-yl)-5-{[5-(trifluoro-methyl)pyrazin-2-yl]amino}-1,2-thiazole-4-carboxamide]: the IC50 came to 620 nM in assay [2] (Homo sapiens, HeLa) and 890 nM in assay [1].
For `Cc1nsc(Nc2cnc(C(F)(F)F)cn2)c1C(=O)Nc1ccc(OC2CCN(C(=O)OC(C)(C)C)CC2)nc1` [Example 5, tert-Butyl 4-[(5-{[(3-methyl-5-{[5-(trifluoromethyl)pyrazin-2-yl]amino}-1,2-thiazol-4-yl)carbonyl]amino}pyridin-2-yl)oxy]piperidine-1-carboxylate] the same measures were 110 nM and 43 nM.
Turning to `Cc1nsc(Nc2cnc(C(F)(F)F)cn2)c1C(=O)Nc1ccc(F)c(OC[C@@H]2CCN(CC(F)F)C2)c1` [Example 403, N-(3-{[(3R)-1-(2,2-difluoroethyl)pyrrolidin-3-yl]methoxy}-4-fluorophenyl)-3-methyl-5-{[5-(trifluoromethyl)pyrazin-2-yl]amino}-1,2-thiazole-4-carboxamide], the IC50 in assay [2] was determined as 42 nM; in assay [2] (Homo sapiens, HeLa), 27 nM; in assay [1], 30 nM.
`Cc1nsc(Nc2ccc(C#N)cn2)c1C(=O)Nc1ccc(OC2CCCN(CC(F)(F)F)C2)nc1` (stereo not shown) [Example 40, 5-[(5-Cyanopyridin-2-yl)amino]-3-methyl-N-(6-{[1-(2,2,2-trifluoroethyl)piperidin-3-yl]oxy}pyridin-3-yl)-1,2-thiazole-4-carboxamide]: the IC50 in assay [2] (Homo sapiens, HeLa) is 390 nM; in assay [1], 150 nM.
The matching figures for `Cc1nsc(Nc2cnc3ccccc3n2)c1C(=O)Nc1cccc(C(=O)N2CCN(C(=O)OC(C)(C)C)CC2)c1` [Example 55, tert-Butyl 4-[3-({[3-methyl-5-(quinoxalin-2-ylamino)-1,2-thiazol-4-yl]carbonyl}amino)-benzoyl]piperazine-1-carboxylate]: 3100 nM and 930 nM.
For `Cc1nsc(Nc2cnc3ccccc3n2)c1C(=O)Nc1cccc(C(=O)O)c1` [Example 51, 3-({[3-Methyl-5-(quinoxalin-2-ylamino)-1,2-thiazol-4-yl]carbonyl}amino)benzoic acid] the same measures were 20000 nM and 20000 nM.
As for `Cc1nsc(Nc2cnc(C(F)(F)F)cn2)c1C(=O)Nc1ccc(OCC2CCN(CC(F)F)CC2(F)F)nc1` (stereo not shown) [Example 401, N-(6-{[1-(2,2-difluoroethyl)-3,3-difluoropiperidin-4-yl]methoxy}pyridin-3-yl)-3-methyl-5-{[5-(trifluoromethyl)pyrazin-2-yl]amino}-1,2-thiazole-4-carboxamide], the IC50 in assay [1] was determined as 27 nM.
Consider `Cc1nsc(Nc2cnc(C(F)(F)F)cn2)c1C(=O)Nc1ccc(OCCNC(=O)C(F)(F)F)nc1` [Example 425, 3-Methyl-N-(6-{2-[(trifluoroacetyl)amino]ethoxy}pyridin-3-yl)-5-{[5-(trifluoro-methyl)pyrazin-2-yl]amino}-1,2-thiazole-4-carboxamide], for which the IC50 in assay [2] (Homo sapiens, HeLa) worked out at 350 nM; in assay [1], 720 nM.
The matching figures for `Cc1nsc(Nc2cnc(C(F)(F)F)cn2)c1C(=O)Nc1ccc(F)c(OC[C@H]2CCCN(CC(F)F)C2)c1` [Example 400, N-(3-{[(3S)-1-(2,2-difluoroethyl)piperidin-3-yl]methoxy}-4-fluorophenyl)-3-methyl-5-{[5-(trifluoromethyl)pyrazin-2-yl]amino}-1,2-thiazole-4-carboxamide]: 59 nM and 81 nM.
For `Cc1nsc(Nc2nc3c(C(F)(F)F)cccc3s2)c1C(=O)Nc1ccc(OCCO)c(F)c1` [Example 4, N-[3-Fluoro-4-(2-hydroxyethoxy)phenyl]-3-methyl-5-{[4-(trifluoromethyl)-1,3-benzothiazol-2-yl]amino}-1,2-thiazole-4-carboxamide] the same measures were 980 nM and 980 nM.
For `Cc1nsc(Nc2cc(C#N)ccn2)c1C(=O)Nc1ccc(OCCCNC(=O)OC(C)(C)C)nc1` [Example 43, tert-Butyl [3-({5-[({5-[(4-cyanopyridin-2-yl)amino]-3-methyl-1,2-thiazol-4-yl}-carbonyl)amino]pyridin-2-yl}oxy)propyl]carbamate] the same measures were 300 nM and 130 nM.
Turning to `Cc1nsc(Nc2cnc3ccccc3n2)c1C(=O)Nc1cccc(NC(=O)C(F)(F)F)c1` [Example 432, 3-Methyl-5-(quinoxalin-2-ylamino)-N-{3-[(trifluoroacetyl)amino]phenyl}-1,2-thiazole-4-carboxamide], the IC50 is 1200 nM in assay [2] (Homo sapiens, HeLa) and 170 nM in assay [1].
With `CCCN1CCC(COc2ccc(NC(=O)c3c(C)nsc3Nc3cnc(C(F)(F)F)cn3)cn2)C(F)(F)C1` (stereo not shown) [Example 394, N-{6-[(3,3-difluoro-1-propylpiperidin-4-yl)methoxy]pyridin-3-yl}-3-methyl-5-{[5-(trifluoromethyl)pyrazin-2-yl]amino}-1,2-thiazole-4-carboxamide], the IC50 in assay [2] (Homo sapiens, HeLa) turned out to be 190 nM.
As to `Cc1nsc(Nc2cnccn2)c1C(=O)Nc1ccc(OCCCNC(=O)OC(C)(C)C)nc1` [Example 47, tert-Butyl (3-{[5-({[3-methyl-5-(pyrazin-2-ylamino)-1,2-thiazol-4-yl]carbonyl}-amino)pyridin-2-yl]oxy}propyl)carbamate], the IC50 in assay [2] (Homo sapiens, HeLa) was found to be 13000 nM; in assay [1], 3600 nM.
The matching figures for `Cc1nsc(Nc2cnc(C(F)(F)F)cn2)c1C(=O)Nc1ccc(F)c(O[C@H]2CCN(CC(F)(F)F)C2)c1` [Example 416, N-(4-Fluoro-3-{[(35)-1-(2,2,2-trifluoroethyl)pyrrolidin-3-yl]oxy}phenyl)-3-methyl-5-{[5-(trifluoromethyl)pyrazin-2-yl]amino}-1,2-thiazole-4-carboxamide]: 27 nM and 4.2 nM.
For `Cc1nsc(Nc2cnc3ccccc3n2)c1C(=O)Nc1cccc(C(=O)N2CCOCC2)c1` [Example 52, 3-Methyl-N-[3-(morpholin-4-ylcarbonyl)phenyl]-5-(quinoxalin-2-ylamino)-1,2-thiazole-4-carboxamide] the same measures were 780 nM and 28 nM.
For `Cc1nsc(Nc2cnc(C(F)(F)F)cn2)c1C(=O)Nc1ccc(OC2CCNCC2)c(F)c1` [Example 431, N-[3-Fluoro-4-(piperidin-4-yloxy)phenyl]-3-methyl-5-{[5-(trifluoromethyl)pyrazin-2-yl]amino}-1,2-thiazole-4-carboxamide] the same measures were 10000 nM and 10000 nM.
Regarding `Cc1nsc(Nc2cnc(C(F)(F)F)cn2)c1C(=O)Nc1ccc(F)c(O[C@H]2CCN(CC(F)F)C2)c1` [Example 417, N-(3-{[(3S)-1-(2,2-Difluoroethyl)pyrrolidin-3-yl]oxy}-4-fluorophenyl)-3-methyl-5-{[5-(trifluoromethyl)pyrazin-2-yl]amino}-1,2-thiazole-4-carboxamide], the IC50 was found to be 32 nM in assay [2] (Homo sapiens, HeLa) and 9.4 nM in assay [1].
